{"source": "patent US4761405A", "about": "“Antagonists of specific excitatory amino acid neurotransmitter receptors having increased potency” (priority 1987, dated 1988)", "origin": "cited, not measured here", "key": {"[1]": {"system": "audiogenically-induced seizures", "details": "i.c.v. and i.v.; genetically susceptible mice; cited from earlier work"}, "[2]": {"system": "neurotoxic and convulsive actions of NMDA, IBO and Quin", "details": "in vivo; cited from earlier work"}, "[3]": {"system": "photically-induced myoclonus", "details": "i.v.; baboon; cited from earlier work"}, "[4]": {"system": "chemically-induced seizures", "details": "rodents; cited from earlier work"}, "[5]": {"system": "electroshock-induced seizures", "details": "mice; cited from earlier work"}, "ischemic brain damage": {"system": "ischemic brain damage", "details": "intrahippocampally; rodent carotid artery occlusion model; cited from earlier work"}}}
{"molecule": "N[C@H](CCCCCP(=O)(O)O)C(=O)O", "note": "[AP7, D(-)-2-amini-7-phosphonoheptanoic acid]", "values": [{"measurement": "Protection against audiogenically-induced seizures", "setting": "[1]", "value": "protects against audiogenically-induced seizures"}, {"measurement": "Effect on neurotoxic and convulsive actions of NMDA, IBO and Quin (but not KA)", "setting": "[2]", "value": "interferring with the neurotoxic and convulsive actions of NMDA, the exogenous excitotoxin, IBO, and the endogenous excitotoxin Quin (but not KA)"}, {"measurement": "Effect on photically-induced myoclonus", "setting": "[3]", "value": "suppresses photically-induced myoclonus"}, {"measurement": "Effect on chemically-induced seizures", "setting": "[4]", "value": "prevents chemically-induced seizures"}, {"measurement": "Effect on threshold current for electroshock-induced seizures", "setting": "[5]", "value": "increased threshold current for electroshock-induced seizures"}, {"measurement": "Effect on ischemic brain damage", "setting": "ischemic brain damage", "value": "markedly reduce or eliminate ischemic brain damage"}]}
